# In patent publication US12503426B2, “Synthetic derivatives of oleoyl-lysophosphatidylinositol (oleoyl-LPI) and uses thereof” (LIPOVEXA SRL, priority 2017, dated 2025):
# Test system: GPR55 mRNA
# Assay: siRNA knockdown of GPR55 mRNA by real-time RT-PCR
# Type: cell-based, murine
# Conditions: Glutag cells, 48 hours post transfection
# Experimental: Transfection was performed according to the “Lipofectamine transfection protocol” (Invitrogen, Life Technologies) and optimised for a 6-well plate format. Briefly, cells were plated in complete growth medium at a density of 3.0×10^5/well in a 6-well plate and incubated at 37° C./5% CO2. Twenty-four hours later, when cells were ˜60% confluent, transfection was performed in RNAse-free conditions. 300 nM of total siRNA pool and 4.0 μl of Lipofectamine transfection reagent were diluted in separate tubes in Optimem and incubated for 5 min at room temperature (RT). The contents of the tubes were carefully mixed and incubated again for 20 min at RT. Cells were washed twice with sterile 1×PBS and incubated in 300 μL of Optimem. After 20 min, transfection complexes were added to the cells drop wise. Cells were then incubated for 4 hours before adding Optimem containing 30% serum without antibiotic. Cells were further incubated at 37° C./5% CO2 for 48 h before secretion experiment. […]
# Transfection efficiency was quantified by real-time RT-PCR. […]
# RT-qPCR was performed according to manufacturer's instructions (Cat. No. K0222, Fermentas). […] The relative changes in gene expression quantification were calculated using the relative ddCT analysis mode of the ABI 7500 Real-Time PCR system software.
substance,measurement,value
"GPR55 siRNA: murine siRNA against GPR55, ACAGGGAAGUGGAGAGAUA (SEQ ID NO: 3) (listed as RNA, chemistry not given here; listed as Mus musculus)",knockdown of GPR55 mRNA,80%
